Here are results for 68 molecules from PubChem BioAssay AID179 (DTP/NCI, 2004).

For this test, the system named is CEM cells HIV-1 protection, formazan growth assay. As to the kind of experiment: NCI AIDS Antiviral Assay. The settings on record: for IC50: measured here: growth of uninfected CEM cells. Summed up:
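Steps: treat uninfected and HIV-1-infected human CEM cells at five drug levels; quantify growth by soluble formazan; retest any compound reaching 50% protection; classify actives from the retest.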

Each structure is given as a SMILES string. Values joined by “and” are separate entries in the source; they are usually repeats but may differ in a detail not shown here. Identical values can stand only once. Active and inactive are the calls of the source.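 Rule for the calls: active = compounds giving half or more protection of infected cells from virus-caused growth loss, again on retest; inactive = the rest.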

On to `Cc1c(Cl)cccc1N1C(=O)C(Cl)=C(Cl)C1=O`, for which the result was inactive.
The term EC50 denotes the concentration at which the effect is half-maximal. As a reminder, the IC50 is the concentration that inhibits the measured activity by half. Low readings indicate greater potency, high ones weaker potency. `O=S(=O)(O)C(O)CCC(O)S(=O)(=O)O` (configuration not stated): the EC50 is over 200 µM and the IC50 worked out at 40.7 µM.
As for `COC1=NCc2ccccc2-c2ccccc21`, the EC50 is over 224 µM and the IC50 amounted to 123 µM.
`CCOC(=O)CC[C@H](NC(=O)c1ccc(CNc2nc3cc(C(F)(F)F)ccc3nc2C(=O)OCC)cc1)C(=O)OCC`: the EC50 is over 100 µM and the IC50 was over 100 µM.
For the molecule `O=c1oc2ccccc2c(O)c1C(c1cccs1)c1c(O)c2ccccc2oc1=O`, the EC50 was over 200 µM and the IC50 was found to be 30.2 µM.
Consider `[N-]=[N+]=NC1C2CC3CC(C2)CC1C3` (configuration not stated), for which the EC50 is over 77.6 µM and the IC50 was over 77.6 µM.
On to `O=S(=O)(c1ccccc1)C(CN1CCCCC1)S(=O)(=O)c1ccccc1`, for which the outcome was inactive.
For the molecule `CCCCNc1ccc(/C=C2\C=Cc3ccccc32)cc1`, the EC50 is over 10 µM and the IC50 was over 10 µM.
For the molecule `CC1(C)C(=O)C(C)(C)C1=NN`, the EC50 was over 83.2 µM and the IC50 was over 83.2 µM.
Regarding `C=CCC1(C)CCCCC1(O)CS(=O)c1ccccc1` (configuration not stated), the result was inactive.
As to `CCc1ccccc1N=NC(=O)NNc1ccccc1CC`, the EC50 is over 200 µM and the IC50 came to 70.8 µM.
For the molecule `Cn1c(N)c(N=Nc2ccc(S(=O)(=O)Nc3nccs3)cc2)c(=O)n(C)c1=O`, the outcome was inactive.
As for `Cn1c(=O)cc(C=Nc2ccc(C(=O)O)cc2)c2ccccc21`, the EC50 was over 200 µM and the IC50 came to 1.32 µM.
The matching figures for `N#CCC1COc2ccccc2O1` (configuration not stated): over 200 µM and over 200 µM.
In the case of `O=C1/C(=C/c2ccc(Br)s2)NC(=S)N1c1ccccc1`, the EC50 was over 200 µM and the IC50 turned out to be 95.5 µM.
The matching figures for `CN(NC(=O)/C(=C/c1cc(Cl)cc(Cl)c1O)NC(=O)c1ccccc1)c1cnn(-c2ccccc2)c(=O)c1Cl`: over 200 µM and 37.2 µM.
On the same counts, the results for `CC(C)=C=CC(C)(C)NS(=O)(=O)NC(C)(C)C=C=C(C)C` are over 200 µM and 105 µM.
On the same counts, the results for `COc1ccc(N=Nc2c(-c3c(OC)cc4occc4c3OC)[nH]c(=O)c(C#N)c2C)cc1` are over 200 µM and 120 µM.
As for `COC(=O)c1ccccc1/C=C1\Cc2cc(C)c(C)cc2C1=O`, the EC50 was over 100 µM and the IC50 was over 100 µM.
`CCN(C(=N)C#N)c1ccccc1`: the EC50 is over 513 µM and the IC50 was 302 µM.
In the case of `CC1=C(C(=O)Nc2ccccc2)C(c2ccc(N(C)C)cc2)C(C(=O)Nc2ccccc2)=C(C)N1`, the outcome was inactive.
As for `COC(=O)C1=CC2CC1C(S(=O)(=O)c1ccccc1)C2S(=O)(=O)c1ccccc1` (configuration not stated), the EC50 is over 100 µM and the IC50 is 4.57 µM.
As to `CCCS(=O)OC1C(C2COC(C)(C)O2)OC2OC(C)(C)OC21` (configuration not stated), the EC50 is over 200 µM and the IC50 worked out at 95.5 µM.
With `COc1nc(N=P(c2ccccc2)(c2ccccc2)c2ccccc2)cc(=O)[nH]1`, the result was inactive.
On to `COc1ccccc1NC(=S)/N=C/c1c(O)[nH]c(=O)[nH]c1=O`, for which the EC50 is over 200 µM and the half-maximal inhibitory concentration (IC50) is over 200 µM.
Regarding `C=C1CC2C(=O)N(c3ccccc3)C(=O)C2CC1n1[nH]c(=O)n(Cc2ccccc2)c1=O` (configuration not stated), the EC50 was over 219 µM and the IC50 was over 219 µM.
As for `COc1ccc(C[C@H]2COC(=O)[C@@H]2Cc2ccc(OC)c(OC)c2)cc1OC`, the EC50 is over 200 µM and the IC50 stood at 123 µM.
On to `O=c1c2cc(-c3ccccc3)sc2nc2n1N=C(c1ccc(Cl)cc1)CS2`, for which the EC50 was over 200 µM and the IC50 is over 200 µM.
Turning to `COC(=O)C1Cc2c([nH]c3ccccc23)-c2[nH]c3ccccc3c2CC(NC(C)=O)C(=O)NCC(=O)NCC(=O)N1` (configuration not stated), the EC50 was over 200 µM and the IC50 was over 200 µM.
In the case of `ClCCCCCc1c2nc(c(CCCCCCl)c3ccc([nH]3)c(CCCCCCl)c3ccc([nH]3)c(CCCCCCl)c3nc1C=C3)C=C2`, the EC50 was over 200 µM and the IC50 was over 200 µM.
With `Fc1sc2c(c1F)C1CCC2C1` (configuration not stated), the EC50 was over 200 µM and the IC50 turned out to be 115 µM.
On the same counts, the results for `CC(NS(C)(=O)=O)c1ccccc1` (configuration not stated) are over 200 µM and over 200 µM.
For the molecule `CCOC(=O)NC(NC1=NCCS1)(C(=O)OCC)C(F)(F)F` (configuration not stated), the EC50 was over 200 µM and the IC50 was determined as 191 µM.
The matching figures for `O=C(c1ccccc1)c1ccc2cccc(OC3OC(CO)C(O)C(O)C3O)c2n1` (configuration not stated): over 603 µM and 316 µM.
On the same counts, the results for `Clc1ccc([S+](c2ccc(Cl)cc2)C(Cl)(Cl)C(Cl)(Cl)Cl)cc1` are over 52.5 µM and 7.24 µM.
Consider `CN1CN(c2ccccc2)C2(CCN(CCCCCCF)CC2)C1=O`, for which the EC50 was over 200 µM and the IC50 is 107 µM.
The matching figures for `CC(=O)NCCCCCCNC(C)=O`: over 1260 µM and over 1260 µM.
On to `CC1=NC(C(C)C)C(=O)O1` (configuration not stated), for which the EC50 is over 891 µM and the IC50 is over 891 µM.
Turning to `CCCCCC#CC1OC12CCCCC2` (configuration not stated), the EC50 was over 126 µM and the IC50 was over 126 µM.
Take `COc1ccc(CCCNC(=O)Cc2cc(OC)c(OC)cc2CO)cc1OC`: the EC50 is over 200 µM and the concentration for half-maximal inhibition (IC50) is 17.8 µM.
On the same counts, the results for `O=C(NC(=S)NC(=O)c1cc(O)c(O)c(O)c1)c1cc(O)c(O)c(O)c1` are over 200 µM and 4.27 µM.
The matching figures for `CC(=O)/C(=C/c1cccc(F)c1)c1ccccc1`: over 56.2 µM and over 56.2 µM.
With `c1ccc2[nH]c(SSc3nc4ccccc4[nH]3)nc2c1`, the EC50 was over 107 µM and the concentration for half-maximal inhibition (IC50) worked out at 89.1 µM.
Regarding `CCCCCCCCCCCc1noc2c1C(=O)CCC2`, the EC50 is over 24.5 µM and the IC50 was over 24.5 µM.
As for `CC(C)CCC[C@@H](C)C1CCC2[C@@H]3CC=C4C[C@@H](OC(=O)CCC(=O)O)CC[C@]4(C)C3CC[C@@]21C` (some centres not stated), the outcome was inactive.
As to `CC1=CC(C)=Nc2ccccc2N1`, the EC50 is over 200 µM; the IC50 is > 200 µM and 195 µM.
In the case of `CC(=O)OC1=C(c2ccccc2)c2ccccc2OC1`, the EC50 is over 26.9 µM and the IC50 was over 26.9 µM.
`O=C1N=NC(Cl)c2ccccc21` (configuration not stated): the EC50 is over 28.8 µM and the IC50 was over 28.8 µM.
Turning to `O=S(=O)(O)c1cc(N=Nc2ccc(/C=C/c3ccc(N=Nc4cc(S(=O)(=O)O)c5cccnc5c4O)cc3)cc2)c(O)c2ncccc12`, the EC50 is 3.98 µM and the IC50 turned out to be 93.3 µM.
Take `Cc1cccc(NC(=S)NNC(=O)c2cc(-c3ccccc3)nc3ccccc23)c1`: the EC50 was over 200 µM and the IC50 worked out at 24 µM.
On the same counts, the results for `CN1CCC2(CC1)C(=NC1CCCCC1)NC(=S)N2c1ccccc1` are over 100 µM and over 100 µM.
With `S=C(N/N=C(/c1ccccc1)c1ccccn1)Nc1ccccc1Cl`, the EC50 was over 0.2 µM and the IC50 stood at 0.0871 µM.
The matching figures for `O=Cc1ccc(-c2ccc(S(=O)(=O)O)cc2)o1`: over 200 µM and 93.3 µM.
The matching figures for `Cc1cn(C(Cc2ccccc2)OCCN2C(=O)c3ccccc3C2=O)c(=O)[nH]c1=O` (configuration not stated): over 200 µM and over 200 µM.
For `CC1=C(C(=O)O)CCC2(C)c3ccc(C(C)C)c(O)c3CCC12` (configuration not stated), the EC50 is over 200 µM and the IC50 came to 46.8 µM.
In the case of `O=C(Nc1ccc(Cl)cc1)C1C(=O)C(=O)N(c2ccc(Cl)cc2)C1=O` (configuration not stated), the outcome was inactive.
Consider `CCOC(=O)n1c2ccccc2c(=O)n1CCO`, for which the EC50 is over 200 µM and the IC50 is over 200 µM.
As for `CCC(C)C(NC(=O)C(CCCCN)NC(=O)CNC(=O)C(NC(=O)C(NC(=O)C(NC(=O)C(Cc1ccccc1)NC(=O)C(C)NC(=O)C(CCCNC(=N)N)NC(=O)CNC(=O)C1CCCN1C(=O)CNC(=O)C(CCCNC(=N)N)NC(=O)C(CCC(N)=O)NC(=O)C(NC(=O)C(CCCNC(=N)N)NC(=O)C(NC(=O)C(COC1OC(CO)C(O)C(O)C1NC(C)=O)NC(=O)C(CCCCN)NC(=O)C(CCCNC(=N)N)NC(=O)C(NC(=O)C(CC(N)=O)NC(=O)C(N)CC(N)=O)C(C)O)C(C)CC)C(C)CC)C(C)C)C(C)OC1OC(CO)C(O)C(O)C1NC(C)=O)C(C)CC)C(=O)NCOC#N` (configuration not stated), the EC50 is over 27.5 µM and the IC50 was over 27.5 µM.
As for `COc1cc2c(c(OC)c1OC)C(=O)[C@@H]1[C@H]2N1C(=O)NCCCl`, the EC50 is over 200 µM and the IC50 was 45.7 µM.
With `O=C1CSC(c2cccc(Cl)c2)N1c1ccc(-n2c(-c3ccccc3)nc3ccccc3c2=O)cc1` (configuration not stated), the EC50 was over 200 µM and the IC50 is 138 µM.
With `CC(C)C(NC(=O)C(Cc1ccccc1)NC(=O)[C@H]1CCC[C@H]1NC(=O)C(N)Cc1ccc(O)cc1)C(N)=O` (some centres not stated), the result was inactive.
With `O=C1CS(=O)(=O)C(c2cccc(F)c2)N1N1C(=O)CS(=O)(=O)C1c1cccc(F)c1` (configuration not stated), the EC50 was over 200 µM and the IC50 was over 200 µM.
Consider `COCc1cc2c(cc1/C(=C/[N+](=O)[O-])CS(=O)(=O)c1ccccc1)OCO2`, for which the EC50 was over 200 µM and the IC50 was 102 µM.
The matching figures for `COc1cc(/C=C/C(=O)CC(=O)/C=C/c2ccc(OC(=O)CCCCC3CCSS3)c(OC)c2)ccc1OC(=O)CCCCC1CCSS1` (configuration not stated): over 200 µM and over 200 µM.
On the same counts, the results for `COc1cc(C(C)(C)C)c(OC(=O)/C=C/C(=O)O/C=C/[N+](=O)[O-])c(C(C)(C)C)c1` are over 200 µM and 31.6 µM.
The matching figures for `Cc1ccccc1-n1c(=S)n(-c2ccc(Cl)cc2)c2nc3ccccc3nc1/c2=N/Nc1cc(Cl)ccc1Cl`: over 200 µM and 174 µM.
With `NC1(CSS(=O)(=O)O)CCN1` (configuration not stated), the EC50 is over 200 µM and the IC50 is over 200 µM.
As for `O=C(O)CC[P+](c1ccccc1)(c1ccccc1)c1ccccc1`, the EC50 was over 200 µM; the concentration for half-maximal inhibition (IC50) is 21.9 µM and > 200 µM.
